Source: PubChem BioAssay (NCI)
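Results reflect a 48-hour exposure of cells in 96-well plates to compound at five concentrations. Abbreviation: GI50, concentration required for 50% inhibition of growth. TGI: total growth inhibition.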 Where a SMILES comes first, the peptide text is derived from it. [ ]: non-standard residue; d: D form. The star is where a group is joined. Lauroyl = CCCCCCCCCCCC(=O)*; Aib = CC(C)(N)C(=O)O; βAla = NCCC(=O)O

Assays:
Assay in all cases: inhibition of tumour cell growth, NCI panel, 48 h
[1] = test system: MALME-3M melanoma
[2] = test system: OVCAR-8 ovarian
[3] = test system: CAKI-1 renal
[4] = test system: IGROV1 ovarian
[5] = test system: TK-10 renal
[6] = test system: SF-268 CNS
[7] = test system: SK-OV-3 ovarian
[8] = test system: A549 NSCLC
[9] = test system: HOP-92 NSCLC
[10] = test system: HOP-62 NSCLC
[11] = test system: SNB-75 CNS
[12] = test system: SW-620 colon
[13] = test system: SR leukemia
[14] = test system: UACC-257 melanoma
[15] = test system: OVCAR-5 ovarian
[16] = test system: HCC-2998 colon
[17] = test system: OVCAR-3 ovarian
[18] = test system: T-47D breast
[19] = test system: SF-295 CNS
[20] = test system: COLO 205 colon
[21] = test system: NCI/ADR-RES ovarian
[22] = test system: HCT-15 colon
[23] = test system: A498 renal
[24] = test system: NCI-H522 lung
[25] = test system: M14 melanoma
[26] = test system: SNB-19 CNS
[27] = test system: MDA-MB-231 breast
[28] = test system: NCI-H226 lung
[29] = test system: UO-31 renal
[30] = test system: NCI-H460 lung
[31] = test system: HCT-116 colon
[32] = test system: DU-145 prostate
[33] = test system: SK-MEL-2 melanoma
[34] = test system: NCI-H23 lung
[35] = test system: KM12 colon
[36] = test system: HS 578T breast
[37] = test system: BT-549 breast
[38] = test system: K-562 leukemia
[39] = test system: ACHN renal
[40] = test system: RPMI-8226 leukemia
[41] = test system: 786-0 renal
[42] = test system: MDA-MB-435
[43] = test system: SF-539 CNS
[44] = test system: OVCAR-4 ovarian
[45] = test system: SN12C renal
[46] = test system: LOX IMVI melanoma
[47] = test system: SK-MEL-28 melanoma
[48] = test system: HT29 colon
[49] = test system: PC-3 prostate
[50] = test system: SK-MEL-5 melanoma
[51] = test system: UACC-62 melanoma
[52] = test system: EKVX NSCLC
[53] = test system: MCF7 breast
[54] = test system: CCRF-CEM leukemia
[55] = test system: U251 CNS
[56] = test system: RXF 393 renal

CCCCCCCCCCCC(=O)NC(C)(C)C(=O)N1CCCC1C(=O)NC(C)(C)C(=O)NC(C)(C)C(=O)N1CCCC1C(=O)NC(C)(C)C(=O)NC(C)(C)C(=O)N1CCCC1C(=O)NC(C)C(=O)NCCC(=O)NC(C)C(=O)NC(C)(C)C(=O)NC(C)(C)C(=O)NC(C)(C)C(=O)NCCC(=O)NC(C)(C)C(=O)NC(C)(C)C(=O)NC(C)(C)C(=O)NC(C)C(=O)NCCC(=O)O (configuration not stated) (Lauroyl-[Aib]P[Aib][Aib]P[Aib][Aib]PA[βAla]A[Aib][Aib][Aib][βAla][Aib][Aib][Aib]A[βAla]-OH; configuration not given here)
GI50 [1]: 346 nM | TGI [1]: 796 nM | GI50 [2]: 357 nM | TGI [2]: 827 nM | GI50 [3]: 279 nM | TGI [3]: 536 nM | GI50 [4]: 377 nM | TGI [4]: 1170 nM | GI50 [5]: 388 nM | TGI [5]: 1180 nM | GI50 [6]: 404 nM | TGI [6]: 1100 nM | GI50 [7]: 325 nM | TGI [7]: 623 nM | GI50 [8]: 310 nM | TGI [8]: 635 nM | GI50 [9]: 238 nM | TGI [9]: 515 nM | GI50 [10]: 325 nM | TGI [10]: 683 nM | GI50 [11]: 238 nM | TGI [11]: 527 nM | GI50 [12]: 400 nM | TGI [12]: 986 nM | GI50 [13]: 352 nM | TGI [13]: 884 nM | GI50 [14]: 387 nM | TGI [14]: 1080 nM | GI50 [15]: 467 nM | TGI [15]: 1590 nM | GI50 [16]: 533 nM | TGI [16]: 1960 nM | GI50 [17]: 444 nM | TGI [17]: 1130 nM | GI50 [18]: 440 nM | TGI [18]: 1440 nM | GI50 [19]: 349 nM | TGI [19]: 873 nM | GI50 [20]: 344 nM | TGI [20]: 721 nM | GI50 [21]: 370 nM | TGI [21]: 833 nM | GI50 [22]: 322 nM | TGI [22]: 652 nM | GI50 [23]: 375 nM | TGI [23]: 860 nM | GI50 [24]: 307 nM | TGI [24]: 621 nM | GI50 [25]: 387 nM | TGI [25]: 1010 nM | GI50 [26]: 423 nM | TGI [26]: 1210 nM | GI50 [27]: 344 nM | TGI [27]: 780 nM | GI50 [28]: 435 nM | TGI [28]: 1230 nM | GI50 [29]: 669 nM | TGI [29]: 1700 nM | GI50 [30]: 310 nM | TGI [30]: 577 nM | GI50 [31]: 300 nM | TGI [31]: 547 nM | GI50 [32]: 441 nM | TGI [32]: 1110 nM | GI50 [33]: 345 nM | TGI [33]: 765 nM | GI50 [34]: 303 nM | TGI [34]: 583 nM | GI50 [35]: 478 nM | TGI [35]: 1320 nM | GI50 [36]: 271 nM | TGI [36]: 711 nM | GI50 [37]: 151 nM | TGI [37]: 383 nM | GI50 [38]: 337 nM | TGI [38]: 822 nM | GI50 [39]: 341 nM | TGI [39]: 667 nM | GI50 [40]: 166 nM | TGI [40]: 561 nM | GI50 [41]: 280 nM | TGI [41]: 513 nM | GI50 [42]: 422 nM | TGI [42]: 1040 nM | GI50 [43]: 298 nM | TGI [43]: 576 nM | GI50 [44]: 296 nM | TGI [44]: 545 nM | GI50 [45]: 296 nM | TGI [45]: 672 nM | GI50 [46]: 286 nM | TGI [46]: 535 nM | GI50 [47]: 437 nM | TGI [47]: 1360 nM | GI50 [48]: 480 nM | TGI [48]: 1350 nM | GI50 [49]: 319 nM | TGI [49]: 689 nM | GI50 [50]: 327 nM | TGI [50]: 652 nM | GI50 [51]: 325 nM | TGI [51]: 724 nM | GI50 [52]: 349 nM | TGI [52]: 790 nM | GI50 [53]: 368 nM | TGI [53]: 906 nM | GI50 [54]: 375 nM | TGI [54]: 818 nM | GI50 [55]: 254 nM | TGI [55]: 500 nM | GI50 [56]: 291 nM | TGI [56]: 527 nM
